Where two headings read alike, the source gives them in different places. Numbered stars: 1 amine (or outer) side, 2 acyl side, 3 side chain; on linkers, the order of the positions; unused ones are H or OH. Square brackets hold non-standard residues; d marks the D form. Side chains are listed from the residue outwards. Peptide text beside a SMILES is read from it. * marks the point of attachment. γGlu = O=C(O)[C@H](CCC(=O)[*:2])N[*:1]; Stearoyl = CCCCCCCCCCCCCCCCCC(=O)*; AEEA = NCCOCCOCC(=O)O; Aib = CC(C)(N)C(=O)O
What was measured:
Assay type in all cases: cell-based
human GIP R = molecular target: T1, human GIP R (Homo sapiens, UniProt P48546); assay: cAMP induction in HEK293 cells expressing human GIP R (AlphaScreen cAMP kit)
T1 construct: expressed in transfected cells
T1 sequence (P48546 22-466): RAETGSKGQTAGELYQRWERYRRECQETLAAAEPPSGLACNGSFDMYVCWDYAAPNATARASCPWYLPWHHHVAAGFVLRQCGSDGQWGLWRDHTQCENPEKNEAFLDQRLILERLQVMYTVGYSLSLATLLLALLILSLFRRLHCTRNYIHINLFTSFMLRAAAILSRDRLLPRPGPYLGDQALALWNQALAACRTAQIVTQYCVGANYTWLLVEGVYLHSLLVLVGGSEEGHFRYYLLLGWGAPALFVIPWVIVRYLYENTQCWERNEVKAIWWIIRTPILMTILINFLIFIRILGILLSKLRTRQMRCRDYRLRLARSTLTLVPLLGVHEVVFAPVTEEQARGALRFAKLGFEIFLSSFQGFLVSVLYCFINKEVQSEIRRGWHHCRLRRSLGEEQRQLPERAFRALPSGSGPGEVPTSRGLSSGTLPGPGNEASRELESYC
Protocol: (§1) Briefly, HEK293 cells expressing the human GIP R, GLP-1 R or GCG R (stable cell lines generated through transfection of the cDNA for human GIP R, GLP-1 R or GCG R and selection of stable clones) were seeded at 30,000 cells/well in 96-well microtiter plates coated with 0.01% poly-L-lysine, and grown for 1 day in culture in 200 μl growth medium (DMEM, 10% FCS, Penicillin (100 IU/ml), Streptomycin (100 μg/ml)). On the day of analysis, growth medium was removed and the cells were washed once with 150 μl Tyrode's buffer (Tyrode's Salts (9.6 g/l), 10 mM HEPES, pH 7.4). […] The Assay buffer was removed and cells are lysed in 80 μl Lysis buffer (0.1% w/v BSA, 5 mM HEPES, 0.3% v/v Tween-20) per well. From each well 10 μl of lysed cells were transferred to a 384-well plate and mixed with 15 μl bead-mix (1 Unit/15 μl anti-cAMP Acceptor Beads, 1 Unit/15 μl Donor Beads, and 1 Unit/15 μl Biotinylated cAMP in Assay Buffer). The plates were mixed and incubated in the dark for an hour at room temperature before measuring using an Envision™ plate reader (Perkin-Elmer).
(§2) The resulting cAMP curves were plotted as absolute cAMP concentrations (nM) over log (test compound concentration) and analyzed using the curve fitting program XLfit.
(§3) Parameters calculated to describe both the potency as well as the agonistic activity of each test compound on the receptors were:
(§4) EC50, a concentration resulting in a half-maximal elevation of cAMP levels, reflecting the potency of the test compound.

human GLP-1 R = molecular target: T2, human GLP-1 R (Homo sapiens, UniProt P43220); assay: cAMP induction in HEK293 cells expressing human GLP-1 R (AlphaScreen cAMP kit)
T2 construct: expressed in transfected cells
T2 sequence (P43220 24-463): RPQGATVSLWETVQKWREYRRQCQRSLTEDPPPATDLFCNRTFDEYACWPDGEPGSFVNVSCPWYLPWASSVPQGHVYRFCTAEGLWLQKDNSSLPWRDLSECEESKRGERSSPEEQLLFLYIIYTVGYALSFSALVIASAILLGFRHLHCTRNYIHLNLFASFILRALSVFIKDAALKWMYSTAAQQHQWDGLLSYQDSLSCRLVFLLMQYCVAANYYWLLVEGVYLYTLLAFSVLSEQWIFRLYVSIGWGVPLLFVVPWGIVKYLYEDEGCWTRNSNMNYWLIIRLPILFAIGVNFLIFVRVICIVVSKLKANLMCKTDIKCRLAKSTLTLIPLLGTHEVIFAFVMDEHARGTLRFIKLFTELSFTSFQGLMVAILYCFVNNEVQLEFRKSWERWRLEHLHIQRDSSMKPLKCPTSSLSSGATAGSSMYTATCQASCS
Protocol: as §1, §2, §3, §4

human GCG R = molecular target: T3, human GCG R (Homo sapiens, UniProt P47871); assay: cAMP induction in HEK293 cells expressing human GCG R (AlphaScreen cAMP kit)
T3 construct: expressed in transfected cells
T3 sequence (P47871 26-477): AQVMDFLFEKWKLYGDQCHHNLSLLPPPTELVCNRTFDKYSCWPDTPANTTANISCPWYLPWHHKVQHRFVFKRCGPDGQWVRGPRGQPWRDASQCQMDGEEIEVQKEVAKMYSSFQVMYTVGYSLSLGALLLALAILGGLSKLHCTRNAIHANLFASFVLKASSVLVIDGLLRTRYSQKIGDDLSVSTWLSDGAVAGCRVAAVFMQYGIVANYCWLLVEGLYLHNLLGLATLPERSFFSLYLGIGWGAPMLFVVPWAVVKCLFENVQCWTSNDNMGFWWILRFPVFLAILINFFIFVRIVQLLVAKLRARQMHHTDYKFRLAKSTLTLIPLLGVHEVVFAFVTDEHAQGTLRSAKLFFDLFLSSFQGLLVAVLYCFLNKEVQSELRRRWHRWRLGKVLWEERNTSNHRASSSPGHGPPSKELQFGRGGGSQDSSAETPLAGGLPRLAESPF
Protocol: as §1, §2, §3, §4

[1] = Table 2b (most comprehensive data), average EC50, cAMP, read-out: GIP R (EC50 in nM)
[2] = Table 2b (most comprehensive data), average EC50, cAMP, HEK293 cells expressing human GLP-1 R, read-out: GLP1 R (EC50 in nM)
[3] = Table 2b (most comprehensive data), average EC50, cAMP, HEK293 cells expressing human GCG R, read-out: GCG R (EC50 in nM)
[4] = GIP R (EC50 in nM), Table 2, average EC50, cAMP
[5] = GIP R (EC50 in nM), Table 2b (most comprehensive data), average EC50, cAMP
[6] = Table 2, average EC50, cAMP, HEK293 cells expressing human GLP-1 R, read-out: GLP1 R (EC50 in nM)
[7] = Table 2, average EC50, cAMP, read-out: GIP R (EC50 in nM)
[8] = Table 2, average EC50, cAMP, HEK293 cells expressing human GCG R, read-out: GCG R (EC50 in nM)

SMILES	EC50 (human GIP R; [1]) [nM]	EC50 (human GLP-1 R; [2]) [nM]	EC50 (human GCG R; [3]) [nM]	EC50 (human GIP R; [4]) [nM]	EC50 (human GIP R; [5]) [nM]	EC50 (human GLP-1 R; [6]) [nM]	EC50 (human GCG R) [nM]	EC50 (human GIP R; [7]) [nM]	EC50 (human GCG R; [8]) [nM]	EC50 (human GLP-1 R) [nM]
CCCCCCCCCCCCCCCCCC(=O)N[C@@H](CCC(=O)NCCOCCOCC(=O)NCCOCCOCC(=O)NCCCC[C@H](NC(=O)[C@H](CCCCN)NC(=O)[C@H](CC(=O)O)NC(=O)[C@H](CC(C)C)NC(=O)[C@H](Cc1ccc(O)cc1)NC(=O)[C@@H](NC(=O)[C@H](CO)NC(=O)[C@H](Cc1ccc(O)cc1)NC(=O)[C@H](CC(=O)O)NC(=O)[C@H](CO)NC(=O)[C@@H](NC(=O)[C@H](Cc1ccccc1)NC(=O)[C@@H](NC(=O)CNC(=O)[C@H](CCC(N)=O)NC(=O)C(C)(C)NC(=O)[C@@H](N)Cc1ccc(O)cc1)[C@@H](C)O)[C@@H](C)O)[C@@H](C)CC)C(=O)N[C@@H](C)C(=O)N[C@@H](CCC(N)=O)C(=O)N[C@@H](CCCNC(=N)N)C(=O)N[C@@H](C)C(=O)N[C@@H](Cc1ccccc1)C(=O)N[C@H](C(=O)N[C@@H](CCC(=O)O)C(=O)N[C@@H](Cc1c[nH]c2ccccc12)C(=O)N[C@@H](CC(C)C)C(=O)N[C@@H](CC(C)C)C(=O)N[C@@H](C)C(=O)N[C@@H](CCC(N)=O)C(=O)NCC(=O)N1CCC[C@H]1C(=O)N[C@@H](CO)C(=O)N[C@@H](CO)C(=O)NCC(=O)N[C@@H](C)C(=O)N1CCC[C@H]1C(=O)N1CCC[C@H]1C(=O)N1CCC[C@H]1C(=O)N[C@@H](CO)C(N)=O)C(C)C)C(=O)O [Compound 35] (H-Y[Aib]QGTFTSDYSIYLDKK([AEEA-AEEA-γGlu-Stearoyl])AQRAFVEWLLAQGPSSGAPPPS-NH2)	0.012	1.85	0.011	–	–	–	–	–	–	–
CC[C@H](C)[C@H](NC(=O)[C@H](CO)NC(=O)[C@H](Cc1ccc(O)cc1)NC(=O)[C@H](CC(=O)O)NC(=O)[C@H](CO)NC(=O)[C@@H](NC(=O)[C@H](Cc1ccccc1)NC(=O)[C@@H](NC(=O)CNC(=O)[C@H](CCC(N)=O)NC(=O)C(C)(C)NC(=O)[C@@H](N)Cc1ccc(O)cc1)[C@@H](C)O)[C@@H](C)O)C(=O)N[C@@H](Cc1ccc(O)cc1)C(=O)N[C@@H](CC(C)C)C(=O)N[C@@H](CCC(=O)O)C(=O)N[C@@H](CCCCN)C(=O)N[C@@H](CCCCN)C(=O)N[C@@H](C)C(=O)N[C@@H](C)C(=O)N[C@@H](CCCCN)C(=O)N[C@@H](CCC(=O)O)C(=O)N[C@@H](Cc1ccccc1)C(=O)N[C@H](C(=O)N[C@@H](CCC(=O)O)C(=O)N[C@@H](Cc1c[nH]c2ccccc12)C(=O)N[C@@H](CC(C)C)C(=O)N[C@@H](CC(C)C)C(=O)N[C@@H](CO)C(=O)N[C@@H](C)C(N)=O)C(C)C [Compound 20] (HELM PEPTIDE1{Y.[Aib].Q.G.T.F.T.S.D.Y.S.I.Y.L.E.K.K.A.A.K.E.F.V.E.W.L.L.S.A.[am]}$$$$V2.0)	–	–	–	0.047	0.009	0.0094	0.057	–	–	–
CC[C@H](C)[C@H](NC(=O)[C@H](CO)NC(=O)[C@H](Cc1ccc(O)cc1)NC(=O)[C@H](CC(=O)O)NC(=O)[C@H](CO)NC(=O)[C@@H](NC(=O)[C@H](Cc1ccccc1)NC(=O)[C@@H](NC(=O)CNC(=O)[C@H](CCC(N)=O)NC(=O)C(C)(C)NC(=O)[C@@H](N)Cc1ccc(O)cc1)[C@@H](C)O)[C@@H](C)O)C(=O)N[C@@H](Cc1ccc(O)cc1)C(=O)N[C@@H](CC(C)C)C(=O)N[C@@H](CC(=O)O)C(=O)N[C@@H](CO)C(=O)N[C@@H](CCCCN)C(=O)N[C@@H](C)C(=O)N[C@@H](C)C(=O)N[C@@H](Cc1c[nH]cn1)C(=O)N[C@@H](CC(=O)O)C(=O)N[C@@H](Cc1ccccc1)C(=O)N[C@H](C(=O)N[C@@H](CCC(=O)O)C(=O)N[C@@H](Cc1c[nH]c2ccccc12)C(=O)N[C@@H](CC(C)C)C(=O)N[C@@H](CC(C)C)C(=O)N[C@@H](CCCNC(=N)N)C(=O)N[C@@H](C)C(N)=O)C(C)C [Compound 12] (HELM PEPTIDE1{Y.[Aib].Q.G.T.F.T.S.D.Y.S.I.Y.L.D.S.K.A.A.H.D.F.V.E.W.L.L.R.A.[am]}$$$$V2.0)	–	–	–	0.084	0.012	0.012	0.076	–	–	–
CCCCCCCCCCCCCCCC(=O)N[C@@H](CCC(=O)NCCCC[C@H](NC(=O)[C@H](CO)NC(=O)[C@H](Cc1ccc(O)cc1)NC(=O)[C@H](CC(=O)O)NC(=O)[C@H](CO)NC(=O)[C@@H](NC(=O)[C@H](Cc1ccccc1)NC(=O)[C@@H](NC(=O)CNC(=O)[C@H](CCC(N)=O)NC(=O)C(C)(C)NC(=O)[C@@H](N)Cc1ccc(O)cc1)[C@@H](C)O)[C@@H](C)O)C(=O)N[C@@H](Cc1ccc(O)cc1)C(=O)N[C@@H](CC(C)C)C(=O)N[C@@H](CCC(=O)O)C(=O)N[C@@H](CCCCN)C(=O)N[C@@H](CCCCN)C(=O)N[C@@H](C)C(=O)N[C@@H](C)C(=O)N[C@@H](CCCCN)C(=O)N[C@@H](CCC(=O)O)C(=O)N[C@@H](Cc1ccccc1)C(=O)N[C@H](C(=O)N[C@@H](CCC(=O)O)C(=O)N[C@@H](Cc1c[nH]c2ccccc12)C(=O)N[C@@H](CC(C)C)C(=O)N[C@@H](CC(C)C)C(=O)N[C@@H](CO)C(=O)N[C@@H](C)C(N)=O)C(C)C)C(=O)O [Compound 25] (HELM PEPTIDE1{Y.[Aib].Q.G.T.F.T.S.D.Y.S.K.Y.L.E.K.K.A.A.K.E.F.V.E.W.L.L.S.A.[am]}|PEPTIDE2{[CCCCCCCCCCCCCCCC(=O)[*:2]].[gGlu]}$PEPTIDE1,PEPTIDE2,12:R3-2:R2$$$V2.0)	0.25	0.28	–	–	–	0.28	–	0.25	0.3	–
CCCCCCCCCCCCCCCC(=O)N[C@@H](CCC(=O)NCCCC[C@H](NC(=O)[C@H](CO)NC(=O)[C@H](CC(=O)O)NC(=O)[C@H](CC(C)C)NC(=O)[C@H](Cc1ccc(O)cc1)NC(=O)[C@@H](NC(=O)[C@H](CO)NC(=O)[C@H](Cc1ccc(O)cc1)NC(=O)[C@H](CC(=O)O)NC(=O)[C@H](CO)NC(=O)[C@@H](NC(=O)[C@H](Cc1ccccc1)NC(=O)[C@@H](NC(=O)CNC(=O)[C@H](CCC(N)=O)NC(=O)C(C)(C)NC(=O)[C@@H](N)Cc1ccc(O)cc1)[C@@H](C)O)[C@@H](C)O)[C@@H](C)CC)C(=O)N[C@@H](C)C(=O)N[C@@H](C)C(=O)N[C@@H](Cc1c[nH]cn1)C(=O)N[C@@H](CC(=O)O)C(=O)N[C@@H](Cc1ccccc1)C(=O)N[C@H](C(=O)N[C@@H](CCC(=O)O)C(=O)N[C@@H](Cc1c[nH]c2ccccc12)C(=O)N[C@@H](CC(C)C)C(=O)N[C@@H](CC(C)C)C(=O)N[C@@H](CO)C(=O)N[C@@H](C)C(=O)NCC(=O)N1CCC[C@H]1C(=O)N[C@@H](CO)C(=O)N[C@@H](CO)C(=O)NCC(=O)N[C@@H](C)C(=O)N1CCC[C@H]1C(=O)N1CCC[C@H]1C(=O)N1CCC[C@H]1C(=O)N[C@@H](CO)C(N)=O)C(C)C)C(=O)O [Compound 29] (HELM PEPTIDE1{Y.[Aib].Q.G.T.F.T.S.D.Y.S.I.Y.L.D.S.K.A.A.H.D.F.V.E.W.L.L.S.A.G.P.S.S.G.A.P.P.P.S.[am]}|PEPTIDE2{[CCCCCCCCCCCCCCCC(=O)[*:2]].[gGlu]}$PEPTIDE1,PEPTIDE2,17:R3-2:R2$$$V2.0)	0.05	0.15	–	–	–	–	–	0.06	0.15	0.05
CC[C@H](C)[C@H](NC(=O)[C@H](CO)NC(=O)[C@H](Cc1ccc(O)cc1)NC(=O)[C@H](CC(=O)O)NC(=O)[C@H](CO)NC(=O)[C@@H](NC(=O)[C@H](Cc1ccccc1)NC(=O)[C@@H](NC(=O)CNC(=O)[C@H](CCC(N)=O)NC(=O)C(C)(C)NC(=O)[C@@H](N)Cc1ccc(O)cc1)[C@@H](C)O)[C@@H](C)O)C(=O)N[C@@H](Cc1ccc(O)cc1)C(=O)N[C@@H](CC(C)C)C(=O)N[C@@H](CC(=O)O)C(=O)N[C@@H](CCCCN)C(=O)N[C@@H](CCCCNC(=O)CC[C@H](NC(=O)CCCCCCCCCCCCCCCCC(=O)O)C(=O)O)C(=O)N[C@@H](C)C(=O)N[C@@H](CCC(N)=O)C(=O)N[C@@H](CCCNC(=N)N)C(=O)N[C@@H](C)C(=O)N[C@@H](Cc1ccccc1)C(=O)N[C@H](C(=O)N[C@@H](CCC(=O)O)C(=O)N[C@@H](Cc1c[nH]c2ccccc12)C(=O)N[C@@H](CC(C)C)C(=O)N[C@@H](CC(C)C)C(=O)N[C@@H](C)C(=O)N[C@@H](CCC(N)=O)C(=O)NCC(=O)N1CCC[C@H]1C(=O)N[C@@H](CO)C(=O)N[C@@H](CO)C(=O)NCC(=O)N[C@@H](C)C(=O)N1CCC[C@H]1C(=O)N1CCC[C@H]1C(=O)N1CCC[C@H]1C(=O)N[C@@H](CO)C(N)=O)C(C)C [Compound 34] (HELM PEPTIDE1{Y.[Aib].Q.G.T.F.T.S.D.Y.S.I.Y.L.D.K.K.A.Q.R.A.F.V.E.W.L.L.A.Q.G.P.S.S.G.A.P.P.P.S.[am]}|PEPTIDE2{[O=C(O)CCCCCCCCCCCCCCCCC(=O)[*:2]].[gGlu]}$PEPTIDE1,PEPTIDE2,17:R3-2:R2$$$V2.0)	0.007	–	0.11	–	–	–	–	–	–	0.0066

From patent publication US10131702B2, “Glucagon-GLP-1-GIP triple agonist compounds” (priority 2013, dated 2018)
